Measurements: patent publication US20060045953A1 (priority 2004, published 2006)
Like-named read-outs stand apart in the source and are kept apart here.

Experiments:
[1] = target: T1, hT1R2/hT1R3 sweet receptor (Homo sapiens, UniProt Q7RTX0+Q8TE23); test: In vitro hT1R2/hT1R3 sweet taste receptor activation assay (FLIPR, dose response); format: cell-based
T1 construct: expressed in transfected cells; host or cells: HEK293 derivative stably expressing Gα15, clone S-9
T1 sequence (Q8TE23 20-839): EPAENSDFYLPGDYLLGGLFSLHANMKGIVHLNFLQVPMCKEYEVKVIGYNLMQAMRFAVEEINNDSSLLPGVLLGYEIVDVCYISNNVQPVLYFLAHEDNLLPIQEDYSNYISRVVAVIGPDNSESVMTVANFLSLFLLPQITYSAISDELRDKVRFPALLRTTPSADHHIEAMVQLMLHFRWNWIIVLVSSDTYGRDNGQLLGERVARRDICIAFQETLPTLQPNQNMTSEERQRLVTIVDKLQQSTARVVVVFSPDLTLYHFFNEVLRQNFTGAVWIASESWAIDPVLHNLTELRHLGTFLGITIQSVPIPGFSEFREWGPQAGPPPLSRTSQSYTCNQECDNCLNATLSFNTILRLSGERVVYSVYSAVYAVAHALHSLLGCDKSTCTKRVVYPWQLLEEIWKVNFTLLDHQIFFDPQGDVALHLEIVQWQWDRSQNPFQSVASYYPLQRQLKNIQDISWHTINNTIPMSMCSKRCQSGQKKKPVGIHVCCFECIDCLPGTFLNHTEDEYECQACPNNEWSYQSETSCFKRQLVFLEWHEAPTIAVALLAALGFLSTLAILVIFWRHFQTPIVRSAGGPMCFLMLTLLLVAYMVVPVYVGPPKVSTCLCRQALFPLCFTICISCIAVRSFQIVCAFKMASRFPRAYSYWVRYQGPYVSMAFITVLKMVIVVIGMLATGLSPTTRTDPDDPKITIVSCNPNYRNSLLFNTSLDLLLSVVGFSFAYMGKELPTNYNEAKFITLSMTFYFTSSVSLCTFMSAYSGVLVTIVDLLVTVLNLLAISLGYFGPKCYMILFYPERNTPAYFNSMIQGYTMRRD
T1 sequence (Q7RTX0 21-852): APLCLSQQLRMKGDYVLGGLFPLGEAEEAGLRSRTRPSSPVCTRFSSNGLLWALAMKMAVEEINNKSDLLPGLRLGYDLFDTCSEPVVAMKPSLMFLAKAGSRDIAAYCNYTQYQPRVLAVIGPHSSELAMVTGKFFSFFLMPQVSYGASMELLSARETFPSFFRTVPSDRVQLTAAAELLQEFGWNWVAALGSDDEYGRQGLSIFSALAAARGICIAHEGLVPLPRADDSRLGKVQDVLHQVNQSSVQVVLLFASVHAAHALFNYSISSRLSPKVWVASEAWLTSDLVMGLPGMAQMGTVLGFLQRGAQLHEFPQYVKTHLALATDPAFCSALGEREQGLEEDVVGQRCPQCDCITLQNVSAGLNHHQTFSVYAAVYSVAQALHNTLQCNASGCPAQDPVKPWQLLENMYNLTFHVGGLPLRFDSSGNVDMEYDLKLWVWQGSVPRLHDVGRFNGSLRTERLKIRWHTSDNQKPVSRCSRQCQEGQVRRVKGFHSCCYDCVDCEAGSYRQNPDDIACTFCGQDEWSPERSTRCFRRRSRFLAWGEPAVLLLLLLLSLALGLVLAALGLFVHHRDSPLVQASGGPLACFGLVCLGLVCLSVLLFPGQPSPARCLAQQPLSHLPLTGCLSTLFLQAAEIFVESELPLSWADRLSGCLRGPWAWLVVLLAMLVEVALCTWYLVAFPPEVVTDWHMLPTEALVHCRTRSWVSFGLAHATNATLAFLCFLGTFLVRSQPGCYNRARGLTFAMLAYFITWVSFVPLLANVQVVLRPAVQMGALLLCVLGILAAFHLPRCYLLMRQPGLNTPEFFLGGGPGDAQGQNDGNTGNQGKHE
Method: Activity was determined using an automated fluorometric imaging assay on a FLIPR instrument (Fluorometric Intensity Plate Reader, Molecular Devices, Sunnyvale, Calif.) (designated FLIPR assay). […] S-9 cells were grown for 24 hours at 37° C. S-9 cells were then loaded with the calcium dye Fluo-3AM (Molecular Probes, Eugene, Oreg.), 4 µM in a phosphate buffered saline (D-PBS) (Invitrogen, Carlsbad, Calif.), for 1 hour at room temperature. After replacement with 25 µl D-PBS, stimulation was performed in the FLIPR instrument and at room temperature by the addition of 25 µl D-PBS supplemented with different stimuli at concentrations corresponding to twice the desired final level.
For dose-responses analysis, stimuli were presented in duplicates at 10 different concentrations ranging from 60 nM to 30 µM. Activities were normalized to the response obtained with 400 mM D-fructose, a concentration that elicits maximum receptor response. EC50s were determined using a non-linear regression algorithm (using a Senomyx, Inc. software), where the Hill slope, bottom asymptotes and top asymptotes were allow to vary.

[2] = target: T2, hT1R1/hT1R3 umami receptor (Homo sapiens, UniProt Q7RTX0+Q7RTX1); test: In vitro hT1R1/hT1R3 umami taste receptor activation assay (FLIPR, dose response); format: cell-based
T2 construct: expressed in transfected cells; host or cells: HEK293 derivative stably expressing Gα15, clone I-17, expression induced with mifepristone
T2 sequence (Q7RTX1 21-841): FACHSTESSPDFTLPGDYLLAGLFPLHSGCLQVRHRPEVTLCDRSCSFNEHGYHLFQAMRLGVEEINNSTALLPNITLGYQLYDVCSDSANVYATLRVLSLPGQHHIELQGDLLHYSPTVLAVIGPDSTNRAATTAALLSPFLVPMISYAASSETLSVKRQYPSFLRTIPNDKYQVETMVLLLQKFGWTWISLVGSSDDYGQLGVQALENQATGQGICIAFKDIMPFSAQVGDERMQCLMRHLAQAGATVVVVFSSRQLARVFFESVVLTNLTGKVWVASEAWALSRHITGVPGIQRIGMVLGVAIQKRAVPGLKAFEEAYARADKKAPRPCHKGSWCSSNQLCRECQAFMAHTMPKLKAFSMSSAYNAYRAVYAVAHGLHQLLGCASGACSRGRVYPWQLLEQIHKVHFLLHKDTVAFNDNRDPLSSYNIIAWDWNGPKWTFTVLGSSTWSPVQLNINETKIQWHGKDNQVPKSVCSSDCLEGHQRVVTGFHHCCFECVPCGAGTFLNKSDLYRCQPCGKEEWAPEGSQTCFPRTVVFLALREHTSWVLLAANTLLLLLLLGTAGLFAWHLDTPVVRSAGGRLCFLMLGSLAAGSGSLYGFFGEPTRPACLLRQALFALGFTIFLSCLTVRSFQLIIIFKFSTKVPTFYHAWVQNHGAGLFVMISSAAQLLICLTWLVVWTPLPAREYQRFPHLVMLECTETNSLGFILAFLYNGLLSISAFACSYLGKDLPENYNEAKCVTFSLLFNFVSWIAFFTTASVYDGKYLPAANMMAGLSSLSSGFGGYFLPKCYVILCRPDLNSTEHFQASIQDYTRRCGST
T2 sequence (Q7RTX0 21-852): T1 sequence (Q7RTX0 21-852)

[3] = Table E, Sweet Enhancer Amides, read-out: Sweet EC50
[4] = Table A, Umami Amides, read-out: Umami EC50
[5] = read-out: EC50 for activation of a hT1R1/hT1R3 umami receptor expressed in an HEK293 cell line

CCC(CC)NC(=O)c1cccc(Cl)c1Cl [Example E75, 2,3-dichloro-N-(pentan-3-yl)benzamide]
EC50 [1, 3]: 3.78 µM

CC1CCCC(NC(=O)c2c(Cl)cccc2Cl)C1C (centres unmarked) [Example E64, 2,6-dichloro-N-(2,3-dimethylcyclohexyl)benzamide]
EC50 [1, 3]: 2.77 µM

Cc1c(NC(=O)N2Cc3ccccc3C2)cccc1[N+](=O)[O-] [Example E102, N-(2-methyl-3-nitrophenyl)isoindoline-2-carboxamide]
EC50 [1, 3]: 2.01 µM

O=C(Nc1c(F)cc(Br)cc1F)N1Cc2ccc(Br)cc2C1 [Example 198, 5-Bromo-N-(4-bromo-2,6-difluorophenyl)isoindoline-2-carboxamide]
EC50 ([1]; read-out: EC50 for activation of a hT1R2/hT1R3 sweet receptor expressed in an HEK293 cell line): 0.42 µM

COc1c(Cl)ccc(Cl)c1C(=O)NC1CCCc2ccccc21 (centres unmarked) [Example E16, 3,6-dichloro-2-methoxy-N-(1,2,3,4-tetrahydronaphthalen-1-yl)benzamide]
EC50 [1, 3]: 3.04 µM

Cc1ccc(NC(=O)N2Cc3ccccc3C2)cc1 [Example E104, N-p-tolylisoindoline-2-carboxamide]
EC50 [1, 3]: 3.05 µM

CC1CCCCC1NC(=O)c1ccc2nonc2c1 (centres unmarked) [Example E71]
EC50 [1, 3]: 3.33 µM

N#Cc1ccccc1NC(=O)N1CCc2ccccc2C1 [Example E110, N-(2-cyanophenyl)-3,4-dihydroisoquinoline-2(1H)-carboxamide]
EC50 [1, 3]: 2.5 µM

N#Cc1c(F)cccc1NC(=O)c1ccc(Cl)cc1Cl [Example E90, 2,4-Dichloro-N-(2-cyano-3-fluoro-phenyl)-benzamide]
EC50 [1, 3]: 2.71 µM

Cc1c(F)c(F)c(C(=O)N[C@H](C)C(C)(C)C)c(F)c1F [Example E31, (R)-N-(3,3-dimethylbutan-2-yl)-2,3,5,6-tetrafluoro-4-methylbenzamide]
EC50 [1, 3]: 0.49 µM

Cc1cc(C)cc(C(=O)NC2CCCCC2C)c1 (centres unmarked) [Example E82, 3,5-dimethyl-N-(2-methylcyclohexyl)benzamide]
EC50 [1, 3]: 4.48 µM

Cc1c(Cl)cccc1C(=O)NC1CCCCC1C (centres unmarked) [Example E80, 3-chloro-2-methyl-N-(2-methylcyclohexyl)benzamide]
EC50 [1, 3]: 4.29 µM

CC1CCCC(NC(=O)Cc2c(F)c(F)c(F)c(F)c2F)C1C (centres unmarked) [Example E74, N-(2,3-dimethylcyclohexyl)-2-(perfluorophenyl)acetamide]
EC50 [1, 3]: 3.62 µM

O=C(Nc1ccc(Cl)cc1)N1Cc2ccccc2C1 [Example E105, N-(4-chlorophenyl)isoindoline-2-carboxamide]
EC50 [1, 3]: 3.4 µM

CCCC(CCC)NC(=O)c1ccc2c(c1)NCCC2 [Example A119, N-(heptan-4-yl)-1,2,3,4-tetrahydroguinoline-7-carboxamide]
EC50 [2, 4]: 0.05 µM

CCCC(COC(C)=O)NC(=O)c1ccc2c(c1)OCO2 (centres unmarked) [Example 14, 2-(benzo[d][1,3]dioxole-6-carboxamido)pentyl acetate]
EC50 [2, 5]: 11.9 µM

O=C(NCCc1ccccn1)C(=O)NCc1ccc2c(c1)OCO2 [Example 138, N-(benzo[d][1,3]dioxol-5-ylmethyl)-N′-(2-(Pyridin-2-yl)ethyl)oxalamide]
EC50 [2, 5]: 0.5 µM

CCC(NC(=O)Nc1ccc(C)cc1Cl)c1ccccc1 (centres unmarked) [Example C24, 1-(2-chloro-4-methylphenyl)-3-(1-phenylpropyl)urea]
EC50 ([2]; Table C, Umami Ureas, read-out: Umami EC50): 0.48 µM

Cc1cc(C(=O)NC(C)CCc2ccccc2)ccc1O (centres unmarked) [Example 111, 4-Hydroxy-3-methyl-N-(1-methyl-3-phenyl-propyl)-benzamide]
EC50 [2, 5]: 2.7 µM

O=C(NCCc1ccccn1)C(=O)NCc1ccccc1Cl [Example 136, N-(2-chlorobenzyl)-N′-(2-(pyridin-2-yl)ethyl)oxalamide]
EC50 [2, 5]: 0.01 µM

CCCC(CCC)NC(=O)c1cc(OC)nc(OC)n1 [Example A122, N-(heptan-4-yl)-2,6-dimethoxypyrimidine-4-carboxamide]
EC50 [2, 4]: 0.22 µM

COC(=O)[C@@H](CC1CCCCC1)NC(=O)c1cc2cc(OC)ccc2o1 [Example 30, (R)-methyl 3-cyclohexyl-2-(5-methoxybenzofuran-2-carboxamido)propanoate]
EC50 [2, 5]: 1.14 µM

CC(C)C[C@@H](NC(=O)c1ccc2c(c1)OCO2)C(=O)NCCc1cccnc1 [Example 15, (R)-N-(4-methyl-1-oxo-1-(2-(pyridin-3-yl)ethylamino)pentan-2-yl)benzo[d][1,3]dioxole-5-carboxamide]
EC50 [2, 5]: 1.7 µM

Cc1c(CNC(=O)C(=O)NCCc2ccccn2)sc2ccccc12 [Example B3]
EC50 ([2]; Table B, Umami Oxalamides, read-out: Umami EC50): 0.81 µM

COc1ccc(CNC(=O)c2ccnn2C)c(OC)c1 [Example 110, 2-Methyl-2H-pyrazole-3-carboxylic acid 2,4-dimethoxy-benzylamide]
EC50 [2, 5]: 6 µM

CCCC(CC(C)C)NC(=O)c1ccc(C)c(C)c1 (centres unmarked) [Example 69, 3,4-dimethyl-N-(2-methylheptan-4-yl)benzamide]
EC50 [2, 5]: 0.13 µM

CCCC(CCC)NC(=O)c1nccc2ccccc12 [Example 103, N-(heptan-4-yl)isoquinoline-1-carboxamide]
EC50 [2, 5]: 14.2 µM

COc1ccc([C@@H](C)NC(=O)c2ccc(OC)c(Cl)c2)cc1 [Example A89, (R)-3-chloro-4-methoxy-N-(1-(4-methoxyphenyl)ethyl)benzamide]
EC50 [2, 4]: 0.6 µM

COc1ccc(C(=O)NCCSCc2ccco2)cc1C [Example 106, N-(2-(furan-2-ylmethylthio)ethyl)-4-methoxy-3-methylbenzamide]
EC50 [2, 5]: 5.6 µM
